Measured values reported in US8394775B2 (Amorepacific Corporation, priority 2005, dated 2013).

Test system: procollagen type (I)
Test: Promotion of collagen biosynthesis in fibroblasts (procollagen type (I) ELISA)
Format: cell-based
Settings: 24 hours, compared to 100 of the non-treatment group
Method: Firstly, fibroblasts (PromoCell, Germany) were seeded in a 24 well plate at a level of 10^5 per well and cultured until they grew up to 90%. […] The supernatant was taken and examined for increase and decrease of procollagen using procollagen type (I) ELISA kit (proc/; ollagen type (I)). The result is shown in Table 3, in which the synthesis is compared to 100 of the non-treatment group.

Q: Which “Synthesis (%) of procollagen” value does the source give for COc1ccc(-c2oc3c(CC=C(C)C)c(O)cc(O)c3c(=O)c2O)cc1 [Icaritin] here?
A: 146%

Q: For tocopherol [reference compound], which “Synthesis (%) of procollagen” value is on record?
A: 118%

Test system: pigment cells (Mel-Ab cell)
Test: Inhibition of melanin synthesis using pigment cell of mouse
Format: cell-based
Settings: 10 ppm for continuous 3 days, non-treatment group given as 100.0
Text: Here, hydroquinone was a positive control.

Q: Which “Melanin content (% of untreated control)” value does the source give for Oc1ccc(O)cc1 [Hydroquinone, hydroquinone, reference compound] here?
A: 41.1%

Q: With COc1ccc(-c2oc3c(CC=C(C)C)c(O)cc(O)c3c(=O)c2O)cc1 [Icaritin] as the compound, how does the “Melanin content (% of untreated control)” value read?
A: 39.5%

Test system: Human keratinocytes HaCaT cell line
Test: Inhibition of reactive oxygen species (ROS) production using fluorescent material (DCFH-DA), UVB irradiation
Format: cell-based
Settings: 6.25 uM; HaCaT cells, UVB 30 mJ/cm^2, DCF fluorescence
Method: The cell lines used in the test was Human keratinocytes HaCaT cell line. The cells were distributed to a 96 well black plate for fluorescence measurement at 2.0×10^4 per each well and cultured in DMEM (Dulbeccos Modification of Eagles Medium, FBS 10%) supplemented with penicillin/streptomycin at 37° C., 5% CO2 for 1 day, followed by treatment with test samples. Serum free DMEM (FBS free) supplemented with penicillin/streptomycin as shown in Table 2 was used for cultivation of the medium which had been treated with samples. The cultivation was performed at 37° C., 5% CO2 for 1 day.
After cultivation of 24 hours with test samples, the plate was washed with HCSS (HEPES-buffered control salt solution) to remove the medium and the HCSS was treated with 100 μl of 20 μM DCFH-DA (2′,7′-dichlorodihydro-fluorescein diacetate, Molecular Probes, Inc). Then, the plate was kept under conditions of 37° C., 5% CO2 for 20 minutes and washed with HCSS. Next, the plate was treated with 100 μl of HCSS comprising samples at different concentrations and the fluorescence intensity of DCF (dichlorofluorescein), which had been oxidized […] at the early stage, was measured using a fluorescent plate reader (Ex=485 nm, Em=530 nm). The fluorescence, right after the irradiation of UVB (30 mJ/cm^2) or 3 hours later of the irradiation, was measured using a fluorescent plate reader (Ex=485 nm, Em=530 nm).
As control, Trolox was used.

Q: Which “Inhibition effect on ROS production (control %)” value (“Inhibition effect … (control %)” for short) does the source give for COc1ccc(-c2oc3c(CC=C(C)C)c(O)cc(O)c3c(=O)c2O)cc1 [Icaritin] here?
A: 68.2%

Same assay, conditions: 12.5 uM; HaCaT cells, UVB 30 mJ/cm^2, DCF fluorescence

Q: With COc1ccc(-c2oc3c(CC=C(C)C)c(O)cc(O)c3c(=O)c2O)cc1 [Icaritin] as the compound, how does the “Inhibition effect … (control %)” value read?
A: 61.5%

Same assay, conditions: 25 uM; HaCaT cells, UVB 30 mJ/cm^2, DCF fluorescence

Q: With COc1ccc(-c2oc3c(CC=C(C)C)c(O)cc(O)c3c(=O)c2O)cc1 [Icaritin] as the compound, how does the “Inhibition effect … (control %)” value read?
A: 51.7%

Same assay, conditions: 50 uM; HaCaT cells, UVB 30 mJ/cm^2, DCF fluorescence

Q: Which “Inhibition effect … (control %)” value does the source give for COc1ccc(-c2oc3c(CC=C(C)C)c(O)cc(O)c3c(=O)c2O)cc1 [Icaritin] here?
A: 43.2%

Same assay, conditions: Homo sapiens, light or radiation study; 6.25 uM; HaCaT cells, UVB 30 mJ/cm^2, DCF fluorescence; read-out: Inhibition effect on ROS production (control %)

Q: With Cc1c(C)c2c(c(C)c1O)CCC(C)(C(=O)O)O2 (centres unmarked) [Trolox, reference compound] as the compound, how does the activity at 6.25 µM read?
A: 76.9%

Same assay, conditions: Homo sapiens, light or radiation study; 12.5 uM; HaCaT cells, UVB 30 mJ/cm^2, DCF fluorescence; read-out: Inhibition effect on ROS production (control %)

Q: Which activity at 12.5 µM does the source give for Cc1c(C)c2c(c(C)c1O)CCC(C)(C(=O)O)O2 (centres unmarked) [Trolox, reference compound] here?
A: 74.6%

Same assay, conditions: Homo sapiens, light or radiation study; 25 uM; HaCaT cells, UVB 30 mJ/cm^2, DCF fluorescence; read-out: Inhibition effect on ROS production (control %)

Q: For Cc1c(C)c2c(c(C)c1O)CCC(C)(C(=O)O)O2 (centres unmarked) [Trolox, reference compound], which activity at 25 µM is on record?
A: 73.3%

Same assay, conditions: Homo sapiens, light or radiation study; 50 uM; HaCaT cells, UVB 30 mJ/cm^2, DCF fluorescence; read-out: Inhibition effect on ROS production (control %)

Q: For Cc1c(C)c2c(c(C)c1O)CCC(C)(C(=O)O)O2 (centres unmarked) [Trolox, reference compound], which activity at 50 µM is on record?
A: 58.5%

Test system: human skin
Test: Whitening effect on human skin after UV-induced darkening
Format: in vivo
Settings: 1% applied on UV-darkened upper arm skin, 10 weeks, colorimeter
Method: Firstly, 12 healthy males were enlisted for the test. They had opaque tape with a 1.5 cm hole attached on the upper arm. UV rays 1.5 to 2 times greater than the minimal erythema dose were irradiated to induce darkening of the skin.
For 10 weeks, the change was observed. Every 1 week, the color of the skin was measured by colorimeter CR2002 (Japan, Minolta)
Then, the difference of skin color (ΔL*) between the point when the application of the test material was initiated and the point when the application of the test material was completed was calculated according to the following equation and the result is shown in Table 7. Meanwhile, the whitening effect was determined by comparison of ΔL* between the sample applied part and the control. When ΔL* value is about 2, the whitening of the pigmentation was significant. When ΔL* is over 1.5, it was considered that the sample had whitening effect. ΔL*=(L*at the point when the application is completed)−(L*at the point when the application is initiated) [Equation 4]

Q: For Oc1ccc(O)cc1 [Hydroquinone, hydroquinone, reference compound], which “Whitening effect (ΔL*)” value is on record?
A: 1.90 ± 0.11

Q: With COc1ccc(-c2oc3c(CC=C(C)C)c(O)cc(O)c3c(=O)c2O)cc1 [Icaritin] as the compound, how does the “Whitening effect (ΔL*)” value read?
A: 1.89 ± 0.25

Test system: collagenase
Test: Inhibition of collagenase expression in human fibroblasts
Format: cell-based
Settings: molar concentration of 10^−4, 24 hours, compared to 100 of the non-treatment group
Method: (§1) Firstly, human fibroblasts were seeded in a 96-well microtiter plate containing DMEM supplemented with 2.5% fetal bovine serum at a level of 5000 cells per well and cultured until they grew up to 90%.
Then, the culture fluid was examined for formation of collagenase using a commercially available collagenase measuring kit (Amorsham pharmacia, USA).
(§2) Firstly, the taken cell culture fluid was added to the 96-well plate having the primary collagenase antibody evenly applied and left for antigen-antibody reaction in a thermostat for 3 hours. After 3 hours, the secondary collagen antibody having a chromophore bonded thereto was added to the 96-well plate and left for reaction for 15 minutes. After 15 minutes, a color developing agent was added and left for 15 minutes. Then, 1M sulphuric acid was added to quit the reaction (color development), upon which the color of the reaction became yellow. The yellow level varied according to the progress of the reaction.
The absorption of the 96-well plate of the yellow color was measured at 405 nm using a spectrophotometer. The expression of collagenase was calculated according to the following Equation I. Here, the absorption of the control was the absorption of the cell culture fluid taken from the group which had not been treated with the test materials. Expression of collagenase (%) (A/B)×100 [Equation I] • (A: absorption of cells treated with the test materials B: absorption of control)
Meanwhile, the result of measurement of inhibition effect of the test materials on collagenase expression in human fibroblasts is shown in Table 4, in which in which the expression of collagenase is compared to 100 of the non-treatment group.

Q: With COc1ccc(-c2oc3c(CC=C(C)C)c(O)cc(O)c3c(=O)c2O)cc1 [Icaritin] as the compound, how does the “Expression of collagenase (%)” value read?
A: 66%

Q: For tocopherol [reference compound], which “Expression of collagenase (%)” value is on record?
A: 75%

Test system: elastase
Test: Inhibition of elastase expression in human fibroblasts
Format: cell-based
Settings: molar concentration of 10^−4, 24 hours, compared to 100 of the non-treatment group
Method: as §1
Then, the culture fluid was examined for formation of elastase using a commercially available elastase measuring kit (Amorsham pharmacia, USA).
as §2, with “elastase” for “collagenase”
The absorption of the 96-well plate of the yellow color was measured at 405 nm using a spectrophotometer. The expression of elastase was calculated according to the following Equation II. Here, the absorption of the control was the absorption of the cell culture fluid taken from the group which had not been treated with the test materials. Expression of elastase (%)=(A/B)×100 [Equation II] • (A: absorption of cells treated with the test materials B: absorption of control)
Meanwhile, the result of measurement of inhibition effect of the test materials on elastase expression in human fibroblasts is shown in Table 5, in which the expression of elastase is compared to 100 of the non-treatment group.

Q: For COc1ccc(-c2oc3c(CC=C(C)C)c(O)cc(O)c3c(=O)c2O)cc1 [Icaritin], which “Expression of elastase (%)” value is on record?
A: 55%

Q: Which “Expression of elastase (%)” value does the source give for tocopherol [reference compound] here?
A: 88%

Test system: not listed separately
Test: DPPH test of anti-oxidant effect
Format: biochemical
Settings: read-out: DPPH analysis IC50 (concentration, upon which the absorption is decreased to 50%); 100 μM DPPH in ethanol, 37° C., 30 minutes, absorption at 540 nm
Method: A method for evaluating anti-oxidant effect through change of absorption generated by reduction of the organic radical DPPH (1,1-diphenyl-2-picryl hydrazyl) (while anti-oxidant is oxidized) is used. The change of absorption, which was decreased when the oxidization of DPPH was inhibited, was measured, as compared to the control.
The absorption was measured at 540 nm. The control sample was synthesized anti-oxidant Trolox, commonly used.

Q: With COc1ccc(-c2oc3c(CC=C(C)C)c(O)cc(O)c3c(=O)c2O)cc1 [Icaritin] as the compound, how does the IC50 read?
A: 6.75 µM

Q: Which IC50 does the source give for Cc1c(C)c2c(c(C)c1O)CCC(C)(C(=O)O)O2 (centres unmarked) [Trolox, reference compound] here?
A: 8.63 µM
